One assay deals with CDK12/CycK (Homo sapiens, UniProt Q9NYV4). Briefly: Inhibition of CDK12 (ADP-Glo kinase assay). The assay is classed as biochemical. The following applies: 60 nM CDK12/CycK, 30 minutes pre-incubation, 1 μM ATP, 0.5 μM RBER-IRStide substrate, 1 h at 25° C., read-out: CDK12/cyclin K IC50. The essentials:
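ADP-Glo luminescence read after a 1 h, 25 °C reaction with 1 μM ATP and 0.5 μM RBER-IRStide peptide. Enzyme (60 nM) and compound were first pre-incubated 30 min; buffer 50 mM HEPES pH 7.5, 20 mM MgCl2, 3 mM MnCl2, 1% DMSO. IC50 fitted after blank subtraction.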

A further assay has as its system DM1 fibroblasts. Briefly: Nuclear foci assay. The following applies: Fibroblast; DM1 fibroblasts treated for 24 hours, 11 point dilution 20 μM-19 nM, in situ hybridisation with cy3 labelled CAG10 probe. The assay is classed as cell-based. As for the experimental part: DM1 fibroblasts were treated with compounds in an 11 point dilution series from 20 μM-19 nM for 24 hours. Following treatment, fluorescent in situ hybridisation was performed with a cy3 labelled CAG10 probe, to visualize nuclear foci and cells were analysed on a Molecular Devices plate reader with customised MetaExpress software (Ketley, A. et al. (2014). Hum Mol Genet, 23: 1551-1562). Compounds that reduced nuclear foci in a concentration dependent manner, compared to DMSO treated cells were identified.

Sequence of CDK12/CycK (Q9NYV4 whole entry): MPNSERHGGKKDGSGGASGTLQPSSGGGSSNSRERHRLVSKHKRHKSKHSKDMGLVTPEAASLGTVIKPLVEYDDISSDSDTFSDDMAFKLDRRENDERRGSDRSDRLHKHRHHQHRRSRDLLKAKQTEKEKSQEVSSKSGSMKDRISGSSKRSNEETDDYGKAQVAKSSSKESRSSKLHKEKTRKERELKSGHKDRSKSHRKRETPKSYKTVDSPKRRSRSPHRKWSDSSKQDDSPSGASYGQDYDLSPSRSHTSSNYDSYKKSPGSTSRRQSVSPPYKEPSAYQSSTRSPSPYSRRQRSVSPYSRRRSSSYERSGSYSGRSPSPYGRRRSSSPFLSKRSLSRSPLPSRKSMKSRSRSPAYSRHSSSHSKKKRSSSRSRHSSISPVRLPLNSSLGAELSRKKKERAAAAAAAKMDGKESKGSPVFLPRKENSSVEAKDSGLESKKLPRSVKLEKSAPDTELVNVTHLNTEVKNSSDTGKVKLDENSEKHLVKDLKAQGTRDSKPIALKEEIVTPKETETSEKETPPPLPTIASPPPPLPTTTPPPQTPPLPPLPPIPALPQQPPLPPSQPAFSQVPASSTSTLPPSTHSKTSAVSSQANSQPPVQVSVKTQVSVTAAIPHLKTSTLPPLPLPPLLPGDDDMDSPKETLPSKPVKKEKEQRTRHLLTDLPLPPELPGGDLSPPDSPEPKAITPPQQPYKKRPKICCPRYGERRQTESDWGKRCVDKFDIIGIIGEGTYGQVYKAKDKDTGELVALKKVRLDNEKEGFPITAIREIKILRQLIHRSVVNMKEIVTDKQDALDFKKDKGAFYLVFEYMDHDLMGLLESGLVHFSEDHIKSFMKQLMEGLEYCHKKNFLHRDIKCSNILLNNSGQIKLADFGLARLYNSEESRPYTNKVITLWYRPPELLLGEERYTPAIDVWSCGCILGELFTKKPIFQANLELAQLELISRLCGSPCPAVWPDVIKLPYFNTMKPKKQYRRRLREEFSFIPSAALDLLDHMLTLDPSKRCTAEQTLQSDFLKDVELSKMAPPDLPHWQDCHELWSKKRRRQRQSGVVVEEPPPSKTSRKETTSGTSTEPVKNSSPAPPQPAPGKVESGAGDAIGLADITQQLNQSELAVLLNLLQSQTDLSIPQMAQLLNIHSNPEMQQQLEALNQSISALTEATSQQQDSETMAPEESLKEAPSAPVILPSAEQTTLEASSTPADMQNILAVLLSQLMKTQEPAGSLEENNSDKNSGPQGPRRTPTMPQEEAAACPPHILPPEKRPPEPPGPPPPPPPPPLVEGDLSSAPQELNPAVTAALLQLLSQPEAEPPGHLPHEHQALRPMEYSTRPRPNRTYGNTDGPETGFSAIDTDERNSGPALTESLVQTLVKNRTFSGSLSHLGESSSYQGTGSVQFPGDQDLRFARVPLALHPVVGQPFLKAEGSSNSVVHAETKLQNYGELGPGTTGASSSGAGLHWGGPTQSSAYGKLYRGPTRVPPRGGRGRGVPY
Sequence of CDK12/CycK (O75909 whole entry partner): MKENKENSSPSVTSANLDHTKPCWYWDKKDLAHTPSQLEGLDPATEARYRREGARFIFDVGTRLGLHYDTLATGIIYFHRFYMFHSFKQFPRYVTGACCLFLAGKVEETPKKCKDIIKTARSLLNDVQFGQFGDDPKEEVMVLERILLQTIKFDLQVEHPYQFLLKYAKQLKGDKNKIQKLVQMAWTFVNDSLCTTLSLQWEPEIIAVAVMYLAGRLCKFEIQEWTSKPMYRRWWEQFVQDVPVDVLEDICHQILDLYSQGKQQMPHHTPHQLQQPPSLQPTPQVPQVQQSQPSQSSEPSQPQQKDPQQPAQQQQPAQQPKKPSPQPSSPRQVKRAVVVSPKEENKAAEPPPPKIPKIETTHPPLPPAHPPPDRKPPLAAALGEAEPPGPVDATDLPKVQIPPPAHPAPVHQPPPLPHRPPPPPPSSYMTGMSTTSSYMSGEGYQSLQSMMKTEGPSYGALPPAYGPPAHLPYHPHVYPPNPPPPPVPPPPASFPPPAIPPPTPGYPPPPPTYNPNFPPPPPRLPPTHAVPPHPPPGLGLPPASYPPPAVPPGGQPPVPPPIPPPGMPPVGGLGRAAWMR

With `C=CC(=O)N1CCC1C(=O)NCCc1cc2c(-c3cnn4ncccc34)ccnc2[nH]1` (single isomer, unassigned) [Example 39], the values for the IC50 at CDK12/CycK and in the assay on DM1 fibroblasts were less than 0.1 µM and less than 1 µM, respectively. Turning to `NC(=O)c1cc2c(-c3cnn4ncccc34)ccnc2[nH]1` [Example 6, 4-(Pyrazolo[1,5-b]pyridazin-3-yl)-1H-pyrrolo[2,3-b]pyridine-2-carboxamide], the figures for the IC50 on CDK12/CycK and with DM1 fibroblasts were 0.1 to 1 µM and 1 to 10 µM, respectively. In the case of `CNC(=O)c1cc2c(-c3cnn4ncccc34)ccnc2[nH]1` [Example 7, N-Methyl-4-(pyrazolo[1,5-b]pyridazin-3-yl)-1H-pyrrolo[2,3-b]pyridine-2-carboxamide], the IC50 on CDK12/CycK was in the range of 0.1 to 1 µM; with DM1 fibroblasts, 1 to 10 µM.

Turning to `c1ccc(Cc2cc3c(-c4cnn5ncccc45)ccnc3[nH]2)cc1` [Example 10, 3-(2-Benzyl-1H-pyrrolo[2,3-b]pyridin-4-yl)pyrazolo[1,5-b]pyridazine], the IC50 on CDK12/CycK is 1 to 30 µM; in the assay with DM1 fibroblasts it was 10 to 100 µM.

For `OCc1cc2c(-c3cnn4ncccc34)ccnc2[nH]1` [Example 11, (4-(Pyrazolo[1,5-b]pyridazin-3-yl)-1H-pyrrolo[2,3-b]pyridin-2-yl)methanol], the figures for the IC50 at CDK12/CycK and with DM1 fibroblasts were 0.1 to 1 µM and 1 to 10 µM, respectively.

Turning to `c1cc(-c2ccc3cn[nH]c3c2)c2cc[nH]c2n1` [Example 20, 6-(1H-Pyrrolo[2,3-b]pyridin-4-yl)-1H-indazole], the IC50 lay within 0.1 to 1 µM at CDK12/CycK and 10 to 100 µM with DM1 fibroblasts.

`c1cc(-c2ccc3[nH]nnc3c2)c2cc[nH]c2n1` [Example 21, 5-(1H-Pyrrolo[2,3-b]pyridin-4-yl)-1H-benzo[d][1,2,3]triazole]: the figures for the IC50 on CDK12/CycK and with DM1 fibroblasts were 1 to 30 µM and 10 to 100 µM, respectively. On to `COc1ccc2c(-c3ccnc4[nH]ccc34)cnn2n1` [Example 22, 6-Methoxy-3-(1H-pyrrolo[2,3-b]pyridin-4-yl)pyrazolo[1,5-b]pyridazine], for which the IC50 is 1 to 30 µM on CDK12/CycK and 10 to 100 µM in the assay with DM1 fibroblasts. Turning to `Cc1cc2c(-c3cnn4ncccc34)ccnc2[nH]1` [Example 27, 3-(2-Methyl-1H-pyrrolo[2,3-b]pyridin-4-yl)pyrazolo[1,5-b]pyridazine], the IC50 at CDK12/CycK was 0.1 to 1 µM; in the assay with DM1 fibroblasts it was less than 1 µM. On the same counts, the results for `c1cnn2ncc(-c3ccnc4[nH]ccc34)c2c1` [Example 28, 3-(1H-Pyrrolo[2,3-b]pyridin-4-yl)pyrazolo[1,5-b]pyridazine] are 0.1 to 1 µM and less than 1 µM. As for `C=CC(=O)N1CCC[C@H]1C(=O)NCCc1cc2c(-c3cnn4ncccc34)ccnc2[nH]1` [Example 32, (S)-1-Acryloyl-N-(2-(4-(pyrazolo[1,5-b]pyridazin-3-yl)-1H-pyrrolo[2,3-b]pyridin-2-yl)ethyl)pyrrolidine-2-carboxamide], the IC50 at CDK12/CycK was less than 0.1 µM; in the assay on DM1 fibroblasts, less than 1 µM. Take `C=CC(=O)N1CCC[C@@H]1C(=O)NCCc1cc2c(-c3cnn4ncccc34)ccnc2[nH]1` [Example 33, (R)-1-Acryloyl-N-(2-(4-(pyrazolo[1,5-b]pyridazin-3-yl)-1H-pyrrolo[2,3-b]pyridin-2-yl)ethyl)pyrrolidine-2-carboxamide]: the figures for the IC50 on CDK12/CycK and in the assay on DM1 fibroblasts were less than 0.1 µM and less than 1 µM, respectively. `C=CC(=O)N1CCC[C@H]1C(=O)N1CCC(c2cc3c(-c4cnn5ncccc45)ccnc3[nH]2)CC1` [Example 194, (S)-1-(2-(4-(4-(Pyrazolo[1,5-b]pyridazin-3-yl)-1H-pyrrolo[2,3-b]pyridin-2-yl)piperidine-1-carbonyl)pyrrolidin-1-yl)prop-2-en-1-one]: on CDK12/CycK, the IC50 was less than 0.1 µM. On the same count and under the same terms, in the case of `C=CC(=O)N1CCC[C@@H]1C(=O)N1CCC(c2cc3c(-c4cnn5ncccc45)ccnc3[nH]2)CC1` [Example 195, (R)-1-(2-(4-(4-(pPyrazolo[1,5-b]pyridazin-3-yl)-1H-pyrrolo[2,3-b]pyridin-2-yl)piperidine-1-carbonyl)pyrrolidin-1-yl)prop-2-en-1-one] it was less than 0.1 µM.

Turning to `C=CC(=O)N1CCC2(CCCN(Cc3cc4c(-c5cnn6ncccc56)ccnc4[nH]3)C2)C1` (stereo not drawn) [Example 198, 1-(7-((4-(Pyrazolo[1,5-b]pyridazin-3-yl)-1H-pyrrolo[2,3-b]pyridin-2-yl)methyl)-2,7-diazaspiro[4.5]decan-2-yl)prop-2-en-1-one], the IC50 at CDK12/CycK lay in the range of 1 to 30 µM. As to `C=CC(=O)NCC1CCN(Cc2cc3c(-c4cnn5ncccc45)ccnc3[nH]2)C1` (stereo not drawn) [Example 199, N-((1-((4-(Pyrazolo[1,5-b]pyridazin-3-yl)-1H-pyrrolo[2,3-b]pyridin-2-yl)methyl)pyrrolidin-3-yl)methyl)acrylamide], at CDK12/CycK, the IC50 was 1 to 30 µM. Consider `N#CCC(=O)N1CCC[C@H]1C(=O)NCCc1cc2c(-c3cnn4ncccc34)ccnc2[nH]1` [Example 201, (S)-1-(2-Cyanoacetyl)-N-(2-(4-(pyrazolo[1,5-b]pyridazin-3-yl)-1H-pyrrolo[2,3-b]pyridin-2-yl)ethyl)pyrrolidine-2-carboxamide], for which the IC50 on CDK12/CycK lay within 0.1 to 1 µM. For the compound `CC(C)=C(C#N)C(=O)N1CCC[C@H]1C(=O)NCCc1cc2c(-c3cnn4ncccc34)ccnc2[nH]1` [Example 202, (S)-1-(2-Cyano-3-methylbut-2-enoyl)-N-(2-(4-(pyrazolo[1,5-b]pyridazin-3-yl)-1H-pyrrolo[2,3-b]pyridin-2-yl)ethyl)pyrrolidine-2-carboxamide], the IC50 on CDK12/CycK lay in the range of 1 to 30 µM. Turning to `C=CC(=O)N1CCC[C@H]1C(=O)N[C@H]1C[C@@H](c2cc3c(-c4cnn5ncccc45)ccnc3[nH]2)C1` [Example 205, (S)-1-Acryloyl-N-((1 S,3R)-3-(4-(pyrazolo[1,5-b]pyridazin-3-yl)-1H-pyrrolo[2,3-b]pyridin-2-yl)cyclobutyl)pyrrolidine-2-carboxamide], at CDK12/CycK, the IC50 was less than 0.1 µM.

On to `C=CC(=O)N1CCC[C@H](C(=O)N2CCC(c3cc4c(-c5cnn6ncccc56)ccnc4[nH]3)C2)C1` (stereo partly drawn) [Example 206, 1-((3S)-3-(3-(4-(Pyrazolo[1,5-b]pyridazin-3-yl)-1H-pyrrolo[2,3-b]pyridin-2-yl)pyrrolidine-1-carbonyl)piperidin-1-yl)prop-2-en-1-one], for which the IC50 at CDK12/CycK is less than 0.1 µM. Still for that read-out and setting: as for `C=CC(=O)N1CCN(C(=O)/C=C/c2cc3c(-c4cnn5ncccc45)ccnc3[nH]2)CC1` [Example 209, (E)-1-(4-Acryloylpiperazin-1-yl)-3-(4-(pyrazolo[1,5-b]pyridazin-3-yl)-1H-pyrrolo[2,3-b]pyridin-2-yl)prop-2-en-1-one], the figure is less than 0.1 µM; as for `C=CC(=O)NC1(C(=O)NCCCc2cc3c(-c4cnn5ncccc45)ccnc3[nH]2)CC1` [Example 214, 1-Acrylamido-N-(3-(4-(pyrazolo[1,5-b]pyridazin-3-yl)-1H-pyrrolo[2,3-b]pyridin-2-yl)propyl)cyclopropane-1-carboxamide], less than 0.1 µM.

Consider `C=CC(=O)Nc1cccc(C(=O)NCCCc2cc3c(-c4cnn5ncccc45)ccnc3[nH]2)c1` [Example 215, 3-Acrylamido-N-(3-(4-(pyrazolo[1,5-b]pyridazin-3-yl)-1H-pyrrolo[2,3-b]pyridin-2-yl)propyl)benzamide], for which the IC50 on CDK12/CycK is less than 0.1 µM. With `C=CC(=O)N1CCC[C@H]1C(=O)NCCCc1cc2c(-c3cnn4ncccc34)ccnc2[nH]1` [Example 216, (S)-1-Acryloyl-N-(3-(4-(pyrazolo[1,5-b]pyridazin-3-yl)-1H-pyrrolo[2,3-b]pyridin-2-yl)propyl)pyrrolidine-2-carboxamide], the IC50 at CDK12/CycK is less than 0.1 µM.

The values are drawn from US11407767B2, “Heterocyclyl substituted pyrrolopyridines that are inhibitors of the CDK12 kinase” (The University of Nottingham, priority 2017, dated 2022).
